Data on 18 compounds can be found in US11999727B2 (Tango Therapeutics, Inc., priority 2020, dated 2024).

pIC50: −log10 of the molar value. Read-outs that look alike come from different tables or passages of the source. A value given as a limit tells only on which side of the number the result lay.

The test system of assay [1] is HAP1 MTAP-deleted cell line. Briefly: Viability assay, MTAP-deleted cell line. The format is cell-based. From the text: Table 1 additionally indicates IC50 values in a viability assay for the MTAP-deleted cell line (column 10), indicating the effect of treatment with compound on cell survival.
Assay [2] has as its system HAP1 MTAP-intact cell line. The assay can be described thus: SDMA in-cell western assay, HAP1 MTAP-intact. In kind it is cell-based. The settings on record: Homo sapiens. In short, it runs like this: (§1)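 MTAP-null vs endogenous-MTAP HAP1 isogenic cells; in-cell western SDMA readout; IC50 per line.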
Assay [3] has as its system HAP1 MTAP-deleted cell line. The assay can be described thus: SDMA in-cell western assay, HAP1 MTAP-deleted. The format is cell-based. The conditions noted are these: for pIC50: Homo sapiens; for MTAP intact/deleted ratio: IC50 ratio HAP1 MTAP-intact / HAP1 MTAP-deleted, SDMA in-cell western. In short, it runs like this:
as §1

The target of assay [4] is T1, PRMT5 (Homo sapiens, UniProt O14744).
T1 construct: purchased Viva (custom protein)
T1 sequence (O14744 whole entry): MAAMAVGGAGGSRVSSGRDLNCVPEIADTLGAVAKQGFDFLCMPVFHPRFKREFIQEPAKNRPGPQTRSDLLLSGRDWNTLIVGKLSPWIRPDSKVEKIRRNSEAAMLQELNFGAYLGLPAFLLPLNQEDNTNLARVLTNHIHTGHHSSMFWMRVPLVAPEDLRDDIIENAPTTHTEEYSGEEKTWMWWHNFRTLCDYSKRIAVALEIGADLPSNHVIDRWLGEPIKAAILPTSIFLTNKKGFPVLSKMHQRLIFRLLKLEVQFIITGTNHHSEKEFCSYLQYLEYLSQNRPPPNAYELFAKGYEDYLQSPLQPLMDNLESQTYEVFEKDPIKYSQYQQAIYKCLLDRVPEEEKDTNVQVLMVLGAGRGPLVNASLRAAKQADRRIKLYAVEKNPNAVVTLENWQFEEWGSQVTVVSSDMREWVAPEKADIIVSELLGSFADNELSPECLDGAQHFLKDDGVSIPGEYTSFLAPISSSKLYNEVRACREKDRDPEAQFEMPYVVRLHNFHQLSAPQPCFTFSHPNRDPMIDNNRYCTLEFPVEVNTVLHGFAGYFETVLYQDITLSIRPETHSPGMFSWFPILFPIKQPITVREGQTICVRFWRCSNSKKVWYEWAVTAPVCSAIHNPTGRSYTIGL
T1 sequence (Q9BQA1 whole entry partner): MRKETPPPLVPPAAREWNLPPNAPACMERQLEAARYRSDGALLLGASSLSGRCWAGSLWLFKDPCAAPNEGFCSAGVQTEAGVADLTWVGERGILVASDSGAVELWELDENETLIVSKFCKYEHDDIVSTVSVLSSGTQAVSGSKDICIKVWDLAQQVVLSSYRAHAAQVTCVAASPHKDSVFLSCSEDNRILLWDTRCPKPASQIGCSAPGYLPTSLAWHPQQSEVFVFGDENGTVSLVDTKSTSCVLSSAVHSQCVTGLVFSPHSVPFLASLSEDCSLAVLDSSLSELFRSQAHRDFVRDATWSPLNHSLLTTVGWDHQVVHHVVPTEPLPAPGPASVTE
The assay can be described thus: PRMT5 biochemical IC50 assay with SAM as cofactor. The settings on record: PRMT5, SAM as cofactor; read-out: SAM IC50.

The target of assay [5] is T1, PRMT5. Briefly: PRMT5 biochemical IC50 assay with no cofactor. The settings on record: PRMT5, no cofactor; read-out: No Cofactor/rel IC50. From the text: Table 1 indicates IC50 values (μM) against PRMT5 for exemplary compounds in the presence of SAM as cofactor, with no cofactor, and with MTA as cofactor, respectively (columns 4-6). […] Ki values can be calculated from the IC50 values as described in the Examples section. As detailed in the Examples section, for the assay performed in the presence of SAM, IC50=Ki×1.5 (Ki=IC50/1.5).

In assay [6] the target is T1, PRMT5. Briefly: PRMT5 biochemical IC50 assay with MTA as cofactor. The conditions noted are these: PRMT5, MTA as cofactor; read-out: MTA IC50.
Where [7] appears, read: Homo sapiens, HAP1, read-out: HAP1 MTAP deleted viability.
The mark [8] stands for this setting: HAP1, read-out: MTAP HAP1 intact IC50.
Where [9] appears, read: HAP1, read-out: HAP1 MTAP deleted IC50.
The mark [10] stands for this setting: Homo sapiens, HAP1, viability assay, MTAP-deleted cell line, read-out: HAP1 MTAP deleted viability.
Where [11] appears, read: HAP1, SDMA in-cell western, HAP1 MTAP-intact, read-out: MTAP HAP1 intact IC50.
[12] abbreviates: HAP1, SDMA in-cell western, HAP1 MTAP-deleted, read-out: HAP1 MTAP deleted IC50.

In the case of `COc1ncc(NC(=O)C(=O)N2C[C@@H](C)CC[C@@H]2c2ccc(O)cc2)cc1C(N)=O` (single isomer, unassigned) [Compound 288], the pIC50 in assay [1] (setting [7]) is more than 6.00; in assay [2] (setting [8]) it was 6.00 to 7.00; in assay [3] (setting [9]), more than 7.00; in assay [4], 6.30 to 7.30; in assay [5], more than 7.30; in assay [6], more than 7.30. For the same compound, the MTAP intact/deleted ratio entry in assay [3] is recorded as “A (an IC50 ratio greater than or equal to 10 fold)”.

Regarding `Cc1cc(NC(=O)C(=O)N2C[C@@H](C)CC[C@@H]2[C@H]2CC[C@@H](C(C)(C)C)CC2)cnc1N` (single isomer, unassigned) [Compound 290], the pIC50 in assay [1] (setting [10]) is less than 5.00; in assay [2] (setting [11]), less than 6.00; in assay [3] (setting [12]), less than 6.00; in assay [4] it was less than 6.30; in assay [5], less than 6.30; in assay [6], less than 6.30. Besides, the MTAP intact/deleted ratio entry in assay [3] is given as “C (an IC50 ratio of less than 3 fold)”.

As for `COc1ncc(NC(=O)C(=O)N2C[C@@H](C)CC[C@@H]2c2ccccc2)cc1C(N)=O` (single isomer, unassigned) [Compound 291], the pIC50 was less than 5.00 in assay [1] (setting [7]); less than 6.00 in assay [2] (setting [8]); less than 6.00 in assay [3] (setting [9]); less than 6.30 in assay [4]; less than 6.30 in assay [5]; less than 6.30 in assay [6]. Besides, the MTAP intact/deleted ratio result in assay [3] is recorded as “C (an IC50 ratio of less than 3 fold)”.

For `COc1ncc(NC(=O)C(=O)N2C[C@H](C)CC[C@H]2c2ccc(O)cc2)cc1C(N)=O` (single isomer, unassigned) [Compound 292], the pIC50 in assay [1] (setting [7]) is less than 5.00; in assay [2] (setting [8]), less than 6.00; in assay [3] (setting [9]), less than 6.00; in assay [4], less than 6.30; in assay [5], less than 6.30; in assay [6], less than 6.30. For the same compound, the MTAP intact/deleted ratio result in assay [3] was “C (an IC50 ratio of less than 3 fold)”.

Regarding `Cc1cc([C@H]2CC[C@H](C)CN2C(=O)C(=O)Nc2cncc(C(N)=O)c2)ccc1F` (single isomer, unassigned) [Compound 293], the pIC50 in assay [1] (setting [10]) was 5.00 to 6.00; in assay [2] (setting [11]), less than 6.00; in assay [3] (setting [12]), more than 7.00; in assay [4] it was more than 7.30; in assay [5], 6.30 to 7.30; in assay [6] it was more than 7.30. Further, the MTAP intact/deleted ratio result in assay [3] is reported as “A (an IC50 ratio greater than or equal to 10 fold)”.

Take `COc1ncc(NC(=O)C(=O)N2CCCCC2C2CCCC2)cc1C(N)=O` (single isomer, unassigned) [Compound 294, 5-(2-(2-cyclopentylpiperidin-1-yl)-2-oxoacetamido)-2-methoxynicotinamide]: the pIC50 in assay [1] (viability assay, MTAP-deleted cell line, read-out: HAP1 MTAP deleted viability) is 5.00 to 6.00; in assay [2] (setting [11]), less than 6.00; in assay [3] (setting [12]), more than 7.00; in assay [4], 6.30 to 7.30; in assay [5], 6.30 to 7.30; in assay [6], more than 7.30. The MTAP intact/deleted ratio result in assay [3] is on record as “A (an IC50 ratio greater than or equal to 10 fold)”.

For the compound `Cc1cc(NC(=O)C(=O)N2C[C@H](C)CC[C@H]2c2cccnc2)cnc1N` (single isomer, unassigned) [Compound 301], the pIC50 in assay [1] (setting [10]) is 5.00 to 6.00; in assay [2] (setting [11]), 6.00 to 7.00; in assay [3] (setting [12]), more than 7.00; in assay [4] it was 6.30 to 7.30; in assay [5], 6.30 to 7.30; in assay [6] it was more than 7.30. For the same compound, the MTAP intact/deleted ratio entry in assay [3] is reported as “B (an IC50 ratio greater than or equal to 3 fold but lower than 10 fold)”.

On to `COc1ncc(NC(=O)C(=O)N2C[C@@H](C)CC[C@@H]2c2cccs2)cc1C(N)=O` (single isomer, unassigned) [Compound 303], for which the pIC50 in assay [1] (setting [10]) was more than 6.00; in assay [2] (setting [11]), less than 6.00; in assay [3] (setting [12]), more than 7.00; in assay [4], 6.30 to 7.30; in assay [5] it was more than 7.30; in assay [6], more than 7.30. In addition, the MTAP intact/deleted ratio result in assay [3] was “A (an IC50 ratio greater than or equal to 10 fold)”.

As for `COc1ncc(NC(=O)C(=O)N2C[C@H](C)CC[C@H]2C2CCCC2)cc1C(N)=O` (single isomer, unassigned) [Compound 306], the pIC50 is 5.00 to 6.00 in assay [1] (setting [10]); less than 6.00 in assay [2] (setting [11]); more than 7.00 in assay [3] (setting [12]); 6.30 to 7.30 in assay [4]; 6.30 to 7.30 in assay [5]; more than 7.30 in assay [6]. Also, the MTAP intact/deleted ratio entry in assay [3] was “A (an IC50 ratio greater than or equal to 10 fold)”.

Regarding `COc1ncc(NC(=O)C(=O)N2C[C@H](C)CC[C@@H]2c2ccccc2)cc1C(N)=O` (single isomer, unassigned) [Compound 308], the pIC50 in assay [1] (setting [7]) is less than 5.00; in assay [2] (setting [8]), less than 6.00; in assay [3] (setting [9]) it was 6.00 to 7.00; in assay [4], 6.30 to 7.30; in assay [5], less than 6.30; in assay [6], more than 7.30. The MTAP intact/deleted ratio entry in assay [3] was “A (an IC50 ratio greater than or equal to 10 fold)”.

For the compound `C[C@@H]1C[C@H](C)[C@@H](c2ccccc2)N(C(=O)C(=O)Nc2cncc(C(N)=O)c2)C1` (single isomer, unassigned) [Compound 311, 5-(2-(3,5-dimethyl-2-phenylpiperidin-1-yl)-2-oxoacetamido)nicotinamide], the pIC50 is less than 5.00 in assay [1] (setting [10]); less than 6.00 in assay [2] (setting [11]); 6.00 to 7.00 in assay [3] (setting [12]); 6.30 to 7.30 in assay [4]; 6.30 to 7.30 in assay [5]; more than 7.30 in assay [6]. The MTAP intact/deleted ratio result in assay [3] was “A (an IC50 ratio greater than or equal to 10 fold)”.

As for `Cc1cc(NC(=O)C(=O)N2C[C@@H](C)[C@H](C)C[C@H]2c2ccccc2)cnc1N` (single isomer, unassigned) [Compound 313], the pIC50 was 5.00 to 6.00 in assay [1] (setting [10]); less than 6.00 in assay [2] (setting [11]); more than 7.00 in assay [3] (setting [12]); 6.30 to 7.30 in assay [4]; 6.30 to 7.30 in assay [5]; more than 7.30 in assay [6]. In addition, in assay [3], the MTAP intact/deleted ratio result is on record as “A (an IC50 ratio greater than or equal to 10 fold)”.

Regarding `C[C@H]1CC[C@H](C2CCC(F)(F)CC2)N(C(=O)C(=O)Nc2cncc(C(N)=O)c2)C1` (single isomer, unassigned) [Compound 320], the pIC50 in assay [1] (setting [10]) is less than 5.00; in assay [2] (setting [11]), less than 6.00; in assay [3] (setting [12]) it was less than 6.00; in assay [4] it was 6.30 to 7.30; in assay [5], less than 6.30; in assay [6], 6.30 to 7.30. Further, the MTAP intact/deleted ratio result in assay [3] is reported as “B (an IC50 ratio greater than or equal to 3 fold but lower than 10 fold)”.

Turning to `Cc1cc([C@@H]2CC[C@@H](C)CN2C(=O)C(=O)Nc2cncc(C(N)=O)c2)ccc1O` (single isomer, unassigned) [Compound 323], the pIC50 in assay [1] (setting [10]) was more than 6.00; in assay [2] (setting [11]) it was 6.00 to 7.00; in assay [3] (setting [12]), more than 7.00; in assay [4], 6.30 to 7.30; in assay [5], more than 7.30; in assay [6], more than 7.30. In addition, the MTAP intact/deleted ratio result in assay [3] is reported as “A (an IC50 ratio greater than or equal to 10 fold)”.

`CC(=O)N1CCC(c2cccc([C@H]3CC[C@H](C)CN3C(=O)C(=O)Nc3cnc(N)c(C)c3)c2)CC1` (single isomer, unassigned) [Compound 324]: the pIC50 was more than 6.00 in assay [1] (setting [10]); 6.00 to 7.00 in assay [2] (setting [11]); more than 7.00 in assay [3] (setting [12]); 6.30 to 7.30 in assay [4]; more than 7.30 in assay [5]; more than 7.30 in assay [6]. Further, in assay [3], the MTAP intact/deleted ratio result was “A (an IC50 ratio greater than or equal to 10 fold)”.

Regarding `C[C@@H]1CC[C@@H](c2ccc3c(c2)C[C@@H](C)O3)N(C(=O)C(=O)Nc2cncc(C(N)=O)c2)C1` (single isomer, unassigned) [Compound 329], the pIC50 in assay [1] (setting [10]) was 5.00 to 6.00; in assay [2] (setting [11]), less than 6.00; in assay [3] (setting [12]), more than 7.00; in assay [4], 6.30 to 7.30; in assay [5], 6.30 to 7.30; in assay [6], more than 7.30. In addition, the MTAP intact/deleted ratio entry in assay [3] was “A (an IC50 ratio greater than or equal to 10 fold)”.

As to `COc1ncc(NC(=O)C(=O)N2C[C@H](C)CC[C@H]2c2ccccc2)cc1C(N)=O` (single isomer, unassigned) [Compound 333], the pIC50 is more than 6.00 in assay [1] (setting [7]); less than 6.00 in assay [2] (setting [8]); more than 7.00 in assay [3] (setting [9]); 6.30 to 7.30 in assay [4]; more than 7.30 in assay [5]; more than 7.30 in assay [6]. Moreover, in assay [3], the MTAP intact/deleted ratio result is listed as “A (an IC50 ratio greater than or equal to 10 fold)”.

Consider `CNc1cccc([C@@H]2CCCCN2C(=O)C(=O)Nc2cncc(C(N)=O)c2)c1` (single isomer, unassigned) [Compound 334], for which the pIC50 in assay [1] (setting [10]) is 5.00 to 6.00; in assay [2] (setting [11]) it was less than 6.00; in assay [3] (setting [12]), more than 7.00; in assay [4], 6.30 to 7.30; in assay [5], 6.30 to 7.30; in assay [6], more than 7.30. In addition, the MTAP intact/deleted ratio entry in assay [3] was “A (an IC50 ratio greater than or equal to 10 fold)”.
